Experimental data published in patent US6599859B1, “Mulch/herbicide composition” (Dow AgroSciences LLC, priority 2001, dated 2003).

Tested on: weeds
Assay: Weed control by mulch, dithiopyr and mulch/dithiopyr compositions applied to the ground
Format: in vivo
Conditions: dithiopyr alone, no mulch, application rate 560 grams per hectare
Description: In the following examples, dithiopyr is first dissolved in a warm solvent such as dipropylene glycol at 12-18 percent, by weight. This solution was then sprayed onto a clay carrier.
The results provided by the composition of this invention were compared with the results obtained using the herbicide and the mulch individually.

CSC(=O)c1c(C(F)F)nc(C(F)(F)F)c(C(=O)SC)c1CC(C)C [Dithiopyr, 2-difluoromethyl-4-(2-methylpropyl)-6-trifluoromethyl-3,5-pyridinedicarbothioic acid, S,S-dimethyl ester]
% Weed Control: 30%
